# Experimental data published in ChEMBL document CHEMBL1153958, “Design and optimization of selective serotonin re-uptake inhibitors with high synthetic accessibility. Part 1” (Bioorg Med Chem Lett, 2009).
# Key:
# [1] = target: Sodium-dependent serotonin transporter (Homo sapiens, UniProt P31645); assay: Inhibition of radiolabeled serotonin reuptake at human SERT expressed in HEK293 cells; format: cell-based
# [2] = target: Sodium-dependent noradrenaline transporter (Homo sapiens, UniProt P23975); assay: Inhibition of radiolabeled noradrenaline reuptake at human NET expressed in HEK293 cells; format: cell-based
# Sodium-dependent noradrenaline transporter, sequence (P23975 whole entry): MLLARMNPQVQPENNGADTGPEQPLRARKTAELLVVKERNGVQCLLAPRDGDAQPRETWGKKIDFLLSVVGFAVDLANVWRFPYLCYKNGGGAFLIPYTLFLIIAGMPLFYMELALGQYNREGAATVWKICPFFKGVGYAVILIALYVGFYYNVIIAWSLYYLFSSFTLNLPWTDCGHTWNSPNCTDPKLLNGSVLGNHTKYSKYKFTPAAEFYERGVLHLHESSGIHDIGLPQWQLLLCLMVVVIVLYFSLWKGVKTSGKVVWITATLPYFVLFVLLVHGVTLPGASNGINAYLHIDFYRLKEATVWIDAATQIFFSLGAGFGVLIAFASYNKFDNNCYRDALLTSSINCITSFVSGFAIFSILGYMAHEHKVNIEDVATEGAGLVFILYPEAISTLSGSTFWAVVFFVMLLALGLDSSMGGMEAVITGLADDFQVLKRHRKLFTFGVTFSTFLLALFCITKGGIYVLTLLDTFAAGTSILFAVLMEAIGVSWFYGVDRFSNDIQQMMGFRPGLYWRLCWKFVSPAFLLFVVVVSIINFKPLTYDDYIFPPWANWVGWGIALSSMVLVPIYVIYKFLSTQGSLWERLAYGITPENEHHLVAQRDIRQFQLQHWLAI
# [3] = target: Sodium-dependent dopamine transporter (Homo sapiens, UniProt Q01959); assay: Inhibition of radiolabeled dopamine reuptake at human DAT expressed in HEK293 cells; format: cell-based
# Sodium-dependent dopamine transporter, sequence (Q01959 whole entry): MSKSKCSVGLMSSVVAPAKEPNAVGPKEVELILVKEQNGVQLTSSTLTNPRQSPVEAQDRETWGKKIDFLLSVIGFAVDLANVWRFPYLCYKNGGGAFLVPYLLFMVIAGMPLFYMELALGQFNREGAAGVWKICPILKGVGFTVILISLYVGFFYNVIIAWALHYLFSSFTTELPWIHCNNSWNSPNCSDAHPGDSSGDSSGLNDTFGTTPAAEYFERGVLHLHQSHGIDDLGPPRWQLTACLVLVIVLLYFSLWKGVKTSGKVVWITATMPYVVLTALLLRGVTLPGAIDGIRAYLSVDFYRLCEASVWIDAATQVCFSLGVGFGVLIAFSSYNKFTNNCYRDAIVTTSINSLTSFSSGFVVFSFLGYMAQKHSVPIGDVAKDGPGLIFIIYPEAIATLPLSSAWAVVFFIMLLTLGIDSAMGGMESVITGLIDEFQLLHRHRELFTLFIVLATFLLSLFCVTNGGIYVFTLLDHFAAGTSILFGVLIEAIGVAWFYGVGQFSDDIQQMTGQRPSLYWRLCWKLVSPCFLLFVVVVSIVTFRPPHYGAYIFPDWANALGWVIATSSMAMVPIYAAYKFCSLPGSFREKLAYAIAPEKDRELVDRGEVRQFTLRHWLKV
# [4] = target: Voltage-gated inwardly rectifying potassium channel KCNH2 (Homo sapiens, UniProt Q12809); assay: Displacement of [3H]dofetilide from human ERG expressed in HEK293 cells
# Voltage-gated inwardly rectifying potassium channel KCNH2, sequence (Q12809 whole entry): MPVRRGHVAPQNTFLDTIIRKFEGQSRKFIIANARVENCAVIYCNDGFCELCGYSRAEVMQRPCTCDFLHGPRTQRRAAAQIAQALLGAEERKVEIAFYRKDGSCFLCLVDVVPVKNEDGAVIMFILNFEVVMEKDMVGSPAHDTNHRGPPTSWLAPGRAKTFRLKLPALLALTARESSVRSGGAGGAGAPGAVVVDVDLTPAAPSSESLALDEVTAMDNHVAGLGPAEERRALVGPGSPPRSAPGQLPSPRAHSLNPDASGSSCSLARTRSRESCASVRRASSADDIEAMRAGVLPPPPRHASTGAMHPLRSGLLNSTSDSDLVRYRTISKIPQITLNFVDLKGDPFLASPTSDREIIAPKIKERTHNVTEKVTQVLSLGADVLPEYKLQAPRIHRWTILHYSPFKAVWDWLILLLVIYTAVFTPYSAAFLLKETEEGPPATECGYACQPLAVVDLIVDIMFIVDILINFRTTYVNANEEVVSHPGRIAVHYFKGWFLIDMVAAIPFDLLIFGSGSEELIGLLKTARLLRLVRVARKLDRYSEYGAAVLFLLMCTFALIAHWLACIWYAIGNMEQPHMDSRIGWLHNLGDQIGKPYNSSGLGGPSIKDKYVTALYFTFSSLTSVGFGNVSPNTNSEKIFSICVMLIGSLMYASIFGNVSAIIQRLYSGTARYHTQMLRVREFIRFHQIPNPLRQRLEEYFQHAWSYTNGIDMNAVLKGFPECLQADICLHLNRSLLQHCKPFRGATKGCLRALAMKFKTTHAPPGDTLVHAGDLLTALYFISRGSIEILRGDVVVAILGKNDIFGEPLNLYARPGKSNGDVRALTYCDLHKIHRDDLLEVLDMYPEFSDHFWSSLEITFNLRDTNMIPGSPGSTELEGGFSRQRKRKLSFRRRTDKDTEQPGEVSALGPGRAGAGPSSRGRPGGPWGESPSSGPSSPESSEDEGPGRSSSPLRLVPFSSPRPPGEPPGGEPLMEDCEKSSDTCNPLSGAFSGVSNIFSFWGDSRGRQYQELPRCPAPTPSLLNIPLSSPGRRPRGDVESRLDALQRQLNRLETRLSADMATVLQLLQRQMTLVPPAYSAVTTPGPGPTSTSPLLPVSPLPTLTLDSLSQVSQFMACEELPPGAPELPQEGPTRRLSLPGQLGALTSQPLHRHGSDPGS
# [5] = target: T1, 5-hydroxytryptamine receptor 3A (Homo sapiens, UniProt P46098); assay: Displacement of [3H]granisetron from human 5HT3 receptor expressed in HEK293 cells; format: cell-based
# T1 sequence (P46098 whole entry): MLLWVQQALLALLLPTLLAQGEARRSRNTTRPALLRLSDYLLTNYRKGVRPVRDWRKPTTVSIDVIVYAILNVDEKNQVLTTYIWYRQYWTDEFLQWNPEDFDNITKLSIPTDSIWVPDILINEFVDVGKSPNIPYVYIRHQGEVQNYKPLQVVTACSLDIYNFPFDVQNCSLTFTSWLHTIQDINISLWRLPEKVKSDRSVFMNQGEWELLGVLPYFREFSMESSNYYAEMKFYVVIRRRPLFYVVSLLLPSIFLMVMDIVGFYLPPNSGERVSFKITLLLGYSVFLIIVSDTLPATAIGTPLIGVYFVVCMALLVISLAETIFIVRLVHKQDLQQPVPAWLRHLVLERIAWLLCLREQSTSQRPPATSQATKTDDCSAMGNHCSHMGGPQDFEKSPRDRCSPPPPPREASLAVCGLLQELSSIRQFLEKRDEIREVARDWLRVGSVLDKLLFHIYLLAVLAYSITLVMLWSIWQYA
# Sodium-dependent serotonin transporter, sequence (P31645 whole entry): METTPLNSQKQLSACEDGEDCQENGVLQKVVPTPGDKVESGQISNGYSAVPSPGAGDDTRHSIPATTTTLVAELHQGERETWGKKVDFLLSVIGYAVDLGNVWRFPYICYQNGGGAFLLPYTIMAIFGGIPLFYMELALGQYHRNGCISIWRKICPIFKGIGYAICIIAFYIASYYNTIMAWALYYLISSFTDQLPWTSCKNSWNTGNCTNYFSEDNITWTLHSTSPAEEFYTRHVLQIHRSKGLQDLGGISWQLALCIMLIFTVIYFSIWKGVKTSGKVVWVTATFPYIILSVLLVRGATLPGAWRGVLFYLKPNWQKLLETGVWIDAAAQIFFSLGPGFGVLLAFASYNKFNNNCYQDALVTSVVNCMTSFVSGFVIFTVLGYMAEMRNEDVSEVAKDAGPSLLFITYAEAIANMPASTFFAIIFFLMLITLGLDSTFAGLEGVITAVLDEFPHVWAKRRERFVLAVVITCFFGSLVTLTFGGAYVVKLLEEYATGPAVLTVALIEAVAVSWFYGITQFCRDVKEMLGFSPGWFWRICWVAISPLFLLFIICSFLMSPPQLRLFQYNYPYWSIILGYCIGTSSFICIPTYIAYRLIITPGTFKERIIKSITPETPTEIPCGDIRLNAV
Structure (SMILES),IC50 [1] [µM],IC50 [2] [µM],IC50 [3] [µM],Ki [4] [µM],Ki [5] [µM]
CCN([C@@H]1CCNC1)S(=O)(=O)c1ccc2ccccc2c1,0.03,2.6,> 30,,
CCCCN(Cc1ccc2ccccc2c1)[C@H]1CCNC1,0.0003,0.08,0.088,,
N#Cc1ccc2cc(OCC3CCNCC3)ccc2c1,0.015,1.9,6,,
c1ccc2cc(CO[C@H]3CCNC3)ccc2c1,0.023,2.9,15,15.7,
COCC(Oc1ccc2ccccc2c1)C1CCNCC1 (racemic),0.005,0.827,,,> 10
CCCCN([C@H]1CCNC1)S(=O)(=O)c1ccc2ccccc2c1,0.016,5.6,> 30,0.412,
c1ccc2cc(OCC3CCNCC3)ccc2c1,0.008,1.8,> 7,,0.311
CC(C)CN(Cc1ccc2ccccc2c1)[C@@H]1CCNC1,0.005,0.08,0.066,,
CCCCN(C1CCNCC1)S(=O)(=O)c1ccc2ccccc2c1,0.014,40,19,0.716,
Fc1ccc2cc(CO[C@@H]3CCNC3)ccc2c1,0.004,10.6,2.1,10.3,
c1ccc2cc(CCN3CCNCC3)ccc2c1,0.088,,,,
CN(Cc1ccc2ccccc2c1)[C@H]1CCNC1,0.013,5.4,7.7,> 5,
c1ccc2cc(CO[C@@H]3CCNC3)ccc2c1,0.02,1.2,3.8,16.4,
Cc1c(CCN2CCNCC2)ccc2cc(F)ccc12,0.004,8.4,> 31,10.1,
c1ccc2cc(OCC3CCNC3)ccc2c1 (racemic),0.025,1.4,1,> 5.5,
c1ccc2cc(CN(C3CCC3)C3CCNCC3)ccc2c1,0.002,1.5,0.21,,
Fc1ccc2cc(CCN3CCNCC3)ccc2c1,0.011,10.5,24,8.5,
N#Cc1ccc2cc(OC[C@@H]3CCNC3)ccc2c1,0.042,0.772,,,
c1ccc2cc(COC3CCNCC3)ccc2c1 [LITOXETINE],0.006,6.5,1.3,,
N#Cc1ccc2ccc(OCC3CCNCC3)cc2c1,0.003,4.4,8.8,3.5,0.404
N#Cc1ccc2cc(CO[C@H]3CCNC3)ccc2c1,0.003,6.8,0.861,4.5,
CN([C@@H]1CCNC1)S(=O)(=O)c1ccc2ccccc2c1,0.138,3,,,
CN([C@H]1CCNC1)S(=O)(=O)c1ccc2ccccc2c1,> 0.4,,,,
N#Cc1ccc2cc(OC[C@H]3CCNC3)ccc2c1,0.037,0.2,,,
CCN(C1CCNCC1)S(=O)(=O)c1ccc2ccccc2c1,> 0.4,> 10,> 10,,
CN(Cc1ccc2ccccc2c1)[C@@H]1CCNC1,0.119,3,3,,
